According to ChEMBL document CHEMBL5223094, “Recent advancements in chromone as a privileged scaffold towards the development of small molecules for neurodegenerative therapeutics” (RSC Med Chem, 2022):

Experiments:
[1] = target: T1, Polyunsaturated fatty acid 5-lipoxygenase (Homo sapiens, UniProt P09917); assay: Inhibition of LOX5 (unknown origin)
T1 sequence (P09917 whole entry): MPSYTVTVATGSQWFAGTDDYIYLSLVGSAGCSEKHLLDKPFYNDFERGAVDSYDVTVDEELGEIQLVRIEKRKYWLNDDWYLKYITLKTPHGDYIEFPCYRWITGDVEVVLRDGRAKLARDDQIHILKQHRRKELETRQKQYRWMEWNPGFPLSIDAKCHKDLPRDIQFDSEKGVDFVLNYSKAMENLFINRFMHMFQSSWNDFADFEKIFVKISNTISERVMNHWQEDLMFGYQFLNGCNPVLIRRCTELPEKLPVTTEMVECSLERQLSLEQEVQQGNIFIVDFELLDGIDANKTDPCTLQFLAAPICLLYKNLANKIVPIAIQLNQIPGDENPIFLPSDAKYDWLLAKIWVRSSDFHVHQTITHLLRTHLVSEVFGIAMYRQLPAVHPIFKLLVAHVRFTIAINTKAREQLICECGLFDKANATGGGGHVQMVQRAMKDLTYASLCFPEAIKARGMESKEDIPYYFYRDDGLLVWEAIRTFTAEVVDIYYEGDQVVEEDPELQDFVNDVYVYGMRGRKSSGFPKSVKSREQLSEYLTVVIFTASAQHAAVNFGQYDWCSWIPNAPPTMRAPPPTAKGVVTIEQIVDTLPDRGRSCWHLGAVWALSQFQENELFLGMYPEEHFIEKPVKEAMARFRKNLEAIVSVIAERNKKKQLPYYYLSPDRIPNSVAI

[2] = target: T2, Prostaglandin G/H synthase 2 (Homo sapiens, UniProt P35354); assay: Inhibition of COX2 (unknown origin)
T2 sequence (P35354 whole entry): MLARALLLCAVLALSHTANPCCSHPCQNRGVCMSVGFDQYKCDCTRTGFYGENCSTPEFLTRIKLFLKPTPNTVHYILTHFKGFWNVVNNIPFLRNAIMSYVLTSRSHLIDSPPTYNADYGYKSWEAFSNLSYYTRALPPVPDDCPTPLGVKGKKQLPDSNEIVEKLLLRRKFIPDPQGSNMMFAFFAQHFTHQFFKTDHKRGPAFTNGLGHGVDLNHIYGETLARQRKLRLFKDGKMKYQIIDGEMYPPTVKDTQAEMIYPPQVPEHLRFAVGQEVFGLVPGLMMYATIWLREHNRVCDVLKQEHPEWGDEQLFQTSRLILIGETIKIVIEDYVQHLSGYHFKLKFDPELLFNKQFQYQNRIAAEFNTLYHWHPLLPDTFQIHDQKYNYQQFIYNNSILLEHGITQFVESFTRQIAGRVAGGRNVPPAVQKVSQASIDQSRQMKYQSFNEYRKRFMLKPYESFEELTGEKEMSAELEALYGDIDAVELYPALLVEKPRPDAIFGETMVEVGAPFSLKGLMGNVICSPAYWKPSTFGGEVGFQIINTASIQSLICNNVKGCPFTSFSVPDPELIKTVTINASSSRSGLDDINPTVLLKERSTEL

Beta-secretase 1 = Beta-secretase 1 (Homo sapiens, UniProt P56817); assay: Inhibition of recombinant human BACE-1 expressed in baculovirus using Rh-EVNLDAEFK-Quencher as substrate incubated for 60 mins by FRET assay
Beta-secretase 1, sequence (P56817 whole entry): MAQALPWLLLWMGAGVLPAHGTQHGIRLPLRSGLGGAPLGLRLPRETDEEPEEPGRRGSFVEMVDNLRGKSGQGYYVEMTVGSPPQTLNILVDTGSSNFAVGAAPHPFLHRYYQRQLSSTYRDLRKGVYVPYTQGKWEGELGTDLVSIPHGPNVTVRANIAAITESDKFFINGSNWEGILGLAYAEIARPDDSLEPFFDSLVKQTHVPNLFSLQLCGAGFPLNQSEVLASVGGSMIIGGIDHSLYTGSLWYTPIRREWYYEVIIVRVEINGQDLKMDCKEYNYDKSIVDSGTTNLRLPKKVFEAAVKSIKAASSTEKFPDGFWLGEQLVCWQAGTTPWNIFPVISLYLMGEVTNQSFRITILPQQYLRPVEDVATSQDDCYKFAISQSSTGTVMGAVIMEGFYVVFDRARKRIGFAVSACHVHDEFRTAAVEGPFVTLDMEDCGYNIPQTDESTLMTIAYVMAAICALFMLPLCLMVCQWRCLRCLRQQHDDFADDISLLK

Acetylcholinesterase [3] = target: T3, Acetylcholinesterase (Homo sapiens, UniProt P22303); assay: Inhibition of recombinant human AChE using acetylthiocholine as substrate preincubated for 15 mins followed by substrate addition and measured after 5 mins by DTNB reagent based Ellman's method
T3 sequence (P22303 whole entry): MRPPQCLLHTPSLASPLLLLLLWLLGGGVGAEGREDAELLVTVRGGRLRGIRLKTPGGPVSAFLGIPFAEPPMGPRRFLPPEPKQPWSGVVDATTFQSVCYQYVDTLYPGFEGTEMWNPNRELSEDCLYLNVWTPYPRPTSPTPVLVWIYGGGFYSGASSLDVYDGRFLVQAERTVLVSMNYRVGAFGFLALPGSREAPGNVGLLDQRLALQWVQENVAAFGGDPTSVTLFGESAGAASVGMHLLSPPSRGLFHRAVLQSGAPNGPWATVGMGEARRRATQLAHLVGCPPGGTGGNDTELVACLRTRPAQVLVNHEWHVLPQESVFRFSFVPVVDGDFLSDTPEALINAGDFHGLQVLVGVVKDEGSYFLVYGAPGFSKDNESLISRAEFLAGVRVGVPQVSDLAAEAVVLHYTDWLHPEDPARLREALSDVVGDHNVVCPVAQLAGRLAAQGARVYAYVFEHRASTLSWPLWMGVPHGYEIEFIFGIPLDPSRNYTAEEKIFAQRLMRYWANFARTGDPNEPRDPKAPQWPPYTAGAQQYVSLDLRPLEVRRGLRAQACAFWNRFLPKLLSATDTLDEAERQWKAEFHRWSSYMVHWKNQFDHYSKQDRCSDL

Cholinesterase [4] = target: T4, Cholinesterase (Homo sapiens, UniProt P06276); assay: Inhibition of recombinant human BuChE using butyrylthiocholine as substrate preincubated for 15 mins followed by substrate addition and measured after 5 mins by Ellman's method
T4 sequence (P06276 whole entry): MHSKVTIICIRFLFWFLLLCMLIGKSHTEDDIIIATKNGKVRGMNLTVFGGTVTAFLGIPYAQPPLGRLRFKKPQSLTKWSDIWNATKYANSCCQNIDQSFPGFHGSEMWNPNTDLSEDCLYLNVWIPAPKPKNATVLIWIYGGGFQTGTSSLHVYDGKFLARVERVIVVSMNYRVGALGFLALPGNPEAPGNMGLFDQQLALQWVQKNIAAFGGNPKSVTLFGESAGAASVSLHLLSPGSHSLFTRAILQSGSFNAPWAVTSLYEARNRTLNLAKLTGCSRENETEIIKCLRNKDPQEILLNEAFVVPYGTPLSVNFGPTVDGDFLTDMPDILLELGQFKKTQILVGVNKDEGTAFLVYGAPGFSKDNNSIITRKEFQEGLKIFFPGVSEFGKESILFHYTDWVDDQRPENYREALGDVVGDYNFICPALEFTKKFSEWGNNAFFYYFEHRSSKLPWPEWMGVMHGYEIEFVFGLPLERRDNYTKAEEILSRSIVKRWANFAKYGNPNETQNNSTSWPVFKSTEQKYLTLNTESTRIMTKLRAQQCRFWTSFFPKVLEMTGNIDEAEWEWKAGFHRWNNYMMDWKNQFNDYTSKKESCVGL

[5] = target: T2, Prostaglandin G/H synthase 2; assay: Inhibition of COX2 (unknown origin) using arachidonic acid as substrate preincubated for 5 mins followed by substrate addition by microplate spectrophotometric analysis
[6] = target: T1, Polyunsaturated fatty acid 5-lipoxygenase; assay: Inhibition of human LOX5 using arachidonic acid preincubated for 10 mins followed by substrate addition by microplate spectrophotometric analysis
[7] = Inhibition of soybean LOX15 using arachidonic acid preincubated for 5 mins followed by substrate addition and measured after 5 mins by microplate spectrophotometric analysis; parameters: species or system Glycine max
Acetylcholinesterase [8] = target: T3, Acetylcholinesterase; assay: Inhibition of AChE (unknown origin) using acetylthiocholine iodide as substrate preincubated for 20 mins followed by substrate addition by Ellman's method
Cholinesterase [9] = target: T4, Cholinesterase; assay: Inhibition of BuChE (unknown origin) using butyrylthiocholine iodide as substrate preincubated for 20 mins followed by substrate addition by Ellman's method
[10] = target: Amyloid-beta precursor protein (Homo sapiens) (UniProt P05067); assay: Inhibition of amyloid beta (unknown origin); conditions: concentration not given here
Amyloid-beta precursor protein (Homo sapiens), sequence (P05067 whole entry): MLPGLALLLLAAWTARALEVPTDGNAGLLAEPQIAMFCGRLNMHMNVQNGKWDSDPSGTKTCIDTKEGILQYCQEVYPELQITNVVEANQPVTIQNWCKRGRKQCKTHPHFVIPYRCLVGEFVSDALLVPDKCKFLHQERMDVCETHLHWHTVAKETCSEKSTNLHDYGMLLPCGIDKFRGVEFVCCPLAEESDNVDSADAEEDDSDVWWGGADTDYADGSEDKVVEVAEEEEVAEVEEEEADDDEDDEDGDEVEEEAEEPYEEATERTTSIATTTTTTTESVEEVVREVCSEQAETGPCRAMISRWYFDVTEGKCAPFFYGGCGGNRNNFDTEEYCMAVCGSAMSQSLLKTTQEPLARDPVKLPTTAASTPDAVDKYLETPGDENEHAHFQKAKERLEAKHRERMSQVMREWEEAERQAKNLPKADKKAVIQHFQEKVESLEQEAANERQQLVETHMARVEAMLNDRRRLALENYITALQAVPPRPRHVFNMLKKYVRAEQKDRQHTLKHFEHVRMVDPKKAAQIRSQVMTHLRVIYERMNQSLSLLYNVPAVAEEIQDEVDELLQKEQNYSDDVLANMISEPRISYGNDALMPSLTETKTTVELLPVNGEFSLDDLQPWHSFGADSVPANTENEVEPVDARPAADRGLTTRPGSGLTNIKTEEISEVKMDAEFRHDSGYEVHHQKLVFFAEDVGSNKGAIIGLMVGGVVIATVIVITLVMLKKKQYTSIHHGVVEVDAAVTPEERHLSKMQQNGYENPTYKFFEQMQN

[11] = target: Amyloid-beta precursor protein (Homo sapiens) (UniProt P05067); assay: Inhibition of amyloid beta (1 to 42) (unknown origin) aggregation at 50 uM incubated for 24 hrs by ThT fluorometric assay
[12] = target: T5, Amine oxidase [flavin-containing] B (Homo sapiens, UniProt P27338); assay: Inhibition of MAO-B (unknown origin)
T5 sequence (P27338 whole entry): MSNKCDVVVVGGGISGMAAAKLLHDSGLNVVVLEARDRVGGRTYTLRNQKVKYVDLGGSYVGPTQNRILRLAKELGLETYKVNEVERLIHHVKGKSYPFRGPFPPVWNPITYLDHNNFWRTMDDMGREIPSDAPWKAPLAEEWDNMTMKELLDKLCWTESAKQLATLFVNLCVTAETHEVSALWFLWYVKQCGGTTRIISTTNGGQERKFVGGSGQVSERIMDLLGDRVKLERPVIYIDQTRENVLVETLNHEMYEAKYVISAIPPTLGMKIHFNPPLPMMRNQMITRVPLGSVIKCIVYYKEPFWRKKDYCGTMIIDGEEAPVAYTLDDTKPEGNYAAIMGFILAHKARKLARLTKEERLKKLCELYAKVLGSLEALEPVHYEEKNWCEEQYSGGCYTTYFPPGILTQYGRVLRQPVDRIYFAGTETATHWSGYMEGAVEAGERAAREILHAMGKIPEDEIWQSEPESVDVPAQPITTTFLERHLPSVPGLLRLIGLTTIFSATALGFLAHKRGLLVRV

[13] = target: T5, Amine oxidase [flavin-containing] B; assay: Inhibition of recombinant human MAO-B using kynuramine as substrate preincubated for 10 mins followed by enzyme addition and measured after 20 mins by fluorescent microplate reader analysis
Homo sapiens [14] = species: Homo sapiens; assay: Selectivity index, ratio of IC50 for inhibition of recombinant human MAO-B to IC50 for inhibition of recombinant human MAO-A
Cholinesterase [15] = target: T4, Cholinesterase; assay: Inhibition of BuChE (unknown origin)
[16] = target: Amyloid-beta precursor protein (Homo sapiens) (UniProt P05067); assay: Inhibition of self-induced amyloid beta (1 to 42) (unknown origin) aggregation by ThT fluorometric assay; conditions: concentration not given here
Acetylcholinesterase [17] = target: Acetylcholinesterase (Electrophorus electricus, UniProt O42275); assay: Inhibition of electric eel AChE using acetylthiocholine iodide as substrate preincubated for 15 mins followed by substrate addition by Ellman's method
Acetylcholinesterase (Electrophorus electricus, UniProt O42275), sequence (O42275 whole entry): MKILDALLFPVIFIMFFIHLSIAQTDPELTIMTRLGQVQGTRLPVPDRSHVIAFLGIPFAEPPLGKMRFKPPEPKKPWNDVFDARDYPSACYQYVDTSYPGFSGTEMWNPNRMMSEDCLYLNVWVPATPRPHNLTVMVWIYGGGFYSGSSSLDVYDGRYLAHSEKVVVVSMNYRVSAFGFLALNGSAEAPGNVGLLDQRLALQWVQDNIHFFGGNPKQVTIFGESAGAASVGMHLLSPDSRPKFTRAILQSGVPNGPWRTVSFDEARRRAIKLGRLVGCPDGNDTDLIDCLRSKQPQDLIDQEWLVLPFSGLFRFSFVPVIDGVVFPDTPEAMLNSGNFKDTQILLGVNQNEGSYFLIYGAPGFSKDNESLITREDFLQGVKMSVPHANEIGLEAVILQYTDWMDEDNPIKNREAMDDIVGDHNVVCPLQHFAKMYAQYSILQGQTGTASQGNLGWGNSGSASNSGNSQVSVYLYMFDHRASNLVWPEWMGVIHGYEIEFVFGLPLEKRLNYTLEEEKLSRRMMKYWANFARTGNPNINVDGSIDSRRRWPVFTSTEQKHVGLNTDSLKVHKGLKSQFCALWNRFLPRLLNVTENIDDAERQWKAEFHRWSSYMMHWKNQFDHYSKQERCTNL

Cholinesterase [18] = target: Cholinesterase (Equus caballus, UniProt P81908); assay: Inhibition of equine serum BuChE using butyrylthiocholine chloride as substrate preincubated for 15 mins followed by substrate addition by Ellman's method
Cholinesterase (Equus caballus, UniProt P81908), sequence (P81908 whole entry): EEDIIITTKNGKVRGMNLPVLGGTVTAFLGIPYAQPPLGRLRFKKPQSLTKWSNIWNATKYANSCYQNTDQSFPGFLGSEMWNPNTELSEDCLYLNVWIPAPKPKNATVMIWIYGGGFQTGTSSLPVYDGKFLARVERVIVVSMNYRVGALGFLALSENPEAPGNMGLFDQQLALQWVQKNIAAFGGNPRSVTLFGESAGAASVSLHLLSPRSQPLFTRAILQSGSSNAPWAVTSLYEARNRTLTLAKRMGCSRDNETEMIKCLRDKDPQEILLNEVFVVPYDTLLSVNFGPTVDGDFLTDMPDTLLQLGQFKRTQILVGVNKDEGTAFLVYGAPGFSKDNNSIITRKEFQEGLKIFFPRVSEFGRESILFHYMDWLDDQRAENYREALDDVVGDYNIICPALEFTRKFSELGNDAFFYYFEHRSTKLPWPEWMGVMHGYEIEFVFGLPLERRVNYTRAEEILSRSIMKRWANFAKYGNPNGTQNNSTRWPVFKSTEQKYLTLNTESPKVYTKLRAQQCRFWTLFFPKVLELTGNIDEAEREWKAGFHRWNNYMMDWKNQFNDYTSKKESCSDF

[19] = target: Amyloid-beta precursor protein (Homo sapiens) (UniProt P05067); assay: Inhibition of self-induced amyloid beta (1 to 42) (unknown origin) aggregation at 10 uM incubated for 48 hrs by ThT fluorometric assay
[20] = target: Amyloid-beta precursor protein (Homo sapiens) (UniProt P05067); assay: Inhibition of electric eel AChE-indued amyloid beta (1 to 42) (unknown origin) aggregation at 100 uM incubated for 24 hrs by ThT fluorometric assay
Homo sapiens [21] = species: Homo sapiens; assay: Selectivity index, ratio of IC50 for inhibition of recombinant human MAO-A to IC50 for inhibition of recombinant human MAO-B
[22] = target: T6, Amine oxidase [flavin-containing] A (Homo sapiens, UniProt P21397); assay: Inhibition of MAO-A (unknown origin)
T6 sequence (P21397 whole entry): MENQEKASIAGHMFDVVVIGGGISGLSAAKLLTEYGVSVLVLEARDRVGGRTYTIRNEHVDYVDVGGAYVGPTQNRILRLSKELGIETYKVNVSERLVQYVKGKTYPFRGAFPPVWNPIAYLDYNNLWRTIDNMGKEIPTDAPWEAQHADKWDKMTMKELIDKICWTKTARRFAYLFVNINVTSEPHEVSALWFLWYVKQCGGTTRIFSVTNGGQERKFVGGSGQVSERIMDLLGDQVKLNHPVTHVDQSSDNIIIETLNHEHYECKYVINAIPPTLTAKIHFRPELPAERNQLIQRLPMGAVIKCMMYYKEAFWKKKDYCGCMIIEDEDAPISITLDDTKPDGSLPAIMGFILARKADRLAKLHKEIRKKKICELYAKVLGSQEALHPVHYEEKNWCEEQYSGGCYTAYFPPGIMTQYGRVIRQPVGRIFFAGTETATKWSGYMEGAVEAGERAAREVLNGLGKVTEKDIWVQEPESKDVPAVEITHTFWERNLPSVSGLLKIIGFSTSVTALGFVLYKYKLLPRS

SH-SY5Y = assay: Neuroprotective activity against 6-OHDA-induced cell death in human SH-SY5Y cells assessed as cell viability; format: functional, cell-based

What does the source list for `O=c1c(/C=N/Nc2ccc(C(F)(F)F)cc2)coc2c1ccc1oc(-c3ccc(Cl)cc3)cc12`?
IC50 [1]: 28.5 µM; IC50 [2]: 10.4 µM; IC50 (Beta-secretase 1): 14 µM; IC50 (Acetylcholinesterase [3]): 5 µM; IC50 (Cholinesterase [4]): 10 µM; IC50 [5]: 10 µM; IC50 [6]: 29 µM; IC50 [7]: 15 µM

Which IC50 (Acetylcholinesterase [8]) does the source give for `O=c1c(O)c(-c2ccccc2)oc2cc(Br)c(I)cc12` here?
Its IC50 is 10 µM.

And the IC50 (Cholinesterase [9])?
Its IC50 is 6 µM.

For `COc1cccc2oc3c(c(=O)c12)[C@@H](O)CC3`, which inhibition [10] is on record?
The inhibition was 80.4%.

What about the inhibition [11] of the same compound?
The inhibition was 80%.

Which results are given for `COc1ccc2c(=O)c(N3CCN(c4ccccc4)CC3)coc2c1`?
IC50 [12]: 0.015 µM; IC50 [13]: 0.015 µM; Ratio IC50 (Homo sapiens [14]): > 6700

Which results are given for `O=C(CCCCC1CCSS1)NCc1cn(CCCCOc2ccc3c(=O)ccoc3c2)nn1` (stereo not given)?
IC50 (Cholinesterase [15]): 8 µM; inhibition [16]: 13%

With `CCc1cc[n+](CCCOc2ccc3c(=O)cc(-c4ccc(OC)cc4)oc3c2)cc1` as the compound, how does the IC50 (Acetylcholinesterase [17]) read?
Its IC50 is 3 µM.

What about the IC50 (Cholinesterase [18]) of the same compound?
Its IC50 is 0.7 µM.

And the inhibition [19]?
Its inhibition is 32%.

What about the inhibition [20] of the same compound?
The inhibition was 37%.

For `COc1ccc2oc(/C=C/c3ccc(Cl)cc3)cc(=O)c2c1`, which Ratio IC50 (Homo sapiens [21]) is on record?
The Ratio IC50 was 1500.

Which IC50 [22] does the source give for `COc1ccc2oc(-n3cncn3)cc(=O)c2c1` here?
The IC50 was 0.023 µM.

Which EC50 (SH-SY5Y) does the source give for `COCOc1cc2occ(-c3ccc(OC)cc3)c(=O)c2c2c1CC(O)C(C)(C)O2` (stereo not given) here?
The EC50 was 0.5 µM.

Which IC50 (Beta-secretase 1) does the source give for `COc1ccc(-c2oc3cc(Br)c(I)cc3c(=O)c2O)cc1` here?
Its IC50 is 16 µM.
